Patent US6492339B1, “Compositions comprising D-chiro inositol and sulfonylureas and methods of treatment thereof” (Insmed, Incorporated, priority 2001, dated 2002)
Entries after “also recorded” stand apart in the source; their conditions may differ.

What was measured:
[1] = system: obese insulin-resistant rhesus monkeys; details: oral or intravenous route; cited from earlier work
[2] = system: obese patients with type 2 diabetes mellitus; assay: Meal tolerance test (MTT) at baseline and final visit of the clinical trial; format: in vivo, human
Description: Changes in area-under-the-curve (AUC) and 120-minute insulin and glucose levels during the meal tolerance test (MTT).
(§1) The study involved 5 scheduled visits. The first visit was the screening visit, followed by a baseline visit up to 2 weeks later. Patients were randomized at the baseline visit, half to 1200 mg/day D-chiro-inositol and half to placebo. and subsequently began 13 weeks of treatment with blinded study medication. There were 3 visits for safety and efficacy assessments, at 4, 8, and 13 weeks after beginning treatment. The 13week visit was the final visit. Patients arrived at the investigational site in a fasted state for all visits. Assessments were to be done at the same time of day at each visit by the same responsible personnel. Medication was taken once a day at the same time of morning, except on visit days, on which the dose was delayed until just after fasting blood samples had been collected.
(§2) Biomarkers: A meal tolerance test (MTT) was performed at baseline (Visit 2) and the final visit (Visit 5). In addition, blood was drawn at every visit for assessment of fasting glucose and insulin, HbA1c, C-peptide, fructosamine, FFA, triglycerides, total cholesterol, HDL, VLDL, LDL, and Apo-B levels.
AUC (and 120-minute) insulin and glucose levels during the MTT;.
FIGS. 1A, 1B and 2 illustrate the observation that D-chiro-inositol (DCI) prolongs pancreatic production of insulin in patients receiving sulfonylurea compounds. […] At baseline, a time when the subjects had been poorly managed on SU compounds alone, both the DCI group and the SU group responded similarly in their ability to produce insulin in response to the meal challenge. […] Without wishing to be bound by theory, the inventors contemplate that this progression is mediated by pancreatic failure and thus reduced insulin secretion. Therefore the amelioration of this effect by administration of DCI benefits the subject by the aforementioned medical improvements, but also will prevent the progression of diabetes by preventing pancreatic failure and/or decreased insulin production.

[3] = system: obese patients with type 2 diabetes mellitus; assay: Randomized, placebo-controlled, double-blind clinical trial of D-chiro-inositol in combination with a sulfonylurea (fasting biomarkers, HbA1c, lipids); format: in vivo, human; details: for difference to placebo in change of mean HbA1c level (%): baseline to endpoint
Description: The objective of this study was to assess the efficacy and safety of D-chiro-inositol when administered as a single oral dose of 1200 mg/day compared to placebo, each in combination with sulfonylureas, for 3 months. Patients were required to have been on sulfonylureas for 3 months prior to study entry without reaching their target dose or with a suboptimal response.
This multicenter, double-blind, parallel-group, placebo-controlled, randomized, fixed-dose clinical study was designed to evaluate 1200 mg/day D-chiro-inositol versus placebo in 270 obese patients with type 2 diabetes mellitus who had been receiving sulfonylureas for at least 3 months without reaching their target or with suboptimal response.
as §1
Patients receiving D-chiro-inositol received four 300 mg capsules once daily for a total daily dose of 1200 mg; placebo patients took 4 placebo capsules once daily. Doses were taken orally, generally in the mornings. Patients were instructed to take their dose in the morning at the same time each day, except on visit days. On visit days, dosing was to be done at the clinic. No instructions were given regarding when to take medication in relation to meals on non-visit days.
as §2
Primary Efficacy Variable(s) and Analyses. The primary analysis was based on the change from baseline to endpoint in HbA1c level using the modified ITT and evaluable study populations. The analysis was done using an analysis of covariance (ANCOVA) model with treatment group and the baseline HbA1c value as predictors.
Secondary Efficacy Variable(s) and Analyses. Since all secondary efficacy parameters were continuous, they were analyzed in the same manner as described above for the primary efficacy parameter, with treatment group and baseline values for the relevant parameter used as predictors.

[4] = system: streptozotocin-treated rats, obese Zucker rats, or normal rats given a glucose load; details: obese Zucker or glucose-loaded normal rats; cited from earlier work
[5] = system: type 2 diabetic patients; assay: Subgroup analysis of lipid lowering drug/D-chiro-inositol effects on LDL cholesterol; format: in vivo, human; details: type 2 diabetic patients on sulfonylurea, with or without lipid lowering medications
Description: Due to the observation of lipid lowering effects seen in the DCI group, the clinical trial described in EXAMPLE 1 was further analyzed for synergistic interactions between D-chiro-inositol and lipid lowering medications. Certain patients within the trial were treated according to standard of care with HMC-CoA inhibitors (LIPITOR®, LESCOL®, ZOCOR®, MEVACOR®, PRAVACHOL®), gemfibrozil, or a combination of HMC-CoA and gemfibrozil. No inclusion or exclusion criteria were established for the efficacy of the lipid lowering drug efficacy in the patient population. As stated supra, these patients were being sub optimally treated with a sulfonylurea prior to beginning the clinical trial.

[6] = system: diabetic population; details: in combination with sulfonylurea or insulin; cited from earlier work
[7] = evaluable patients with fasting plasma glucose ≦180 mg/dL, 1200 mg/day oral with sulfonylureas
[8] = evaluable population, 1200 mg/day oral with sulfonylureas, 13 weeks
[9] = patients with fasting plasma glucose ≦180 mg/dL, 1200 mg/day oral with sulfonylureas

SMILES | disappearance rate of plasma glucose and insulin [1] | Change in insulin AUC from baseline to final (FIG. 2) ([2]; DCI+SU, scatter diagram of individual subjects, median, listed as DCI) | insulin response after a meal tolerance test, baseline versus final (FIGS. 1A, 1B) ([2]; DCI+SU, subjects with fasting blood glucose ≤180 mg/dl, three month timepoint, listed as DCI) | AUC insulin, mean change [2, 7] [μU/mL · hr] | 120-min. insulin, mean change at endpoint [2, 8] [μU/mL] | AUC insulin, mean change at endpoint [2, 8] [μU/mL · hr] | Mean change (in %) in HbA1c levels from baseline to endpoint ([3]; all subjects using LOCF at endpoint, 1200 mg/day oral with sulfonylureas, 13 weeks) [%] | decrease in mean HbA1c level (%) from baseline to endpoint ([3]; evaluable patients with FPG≦180 mg/dL, value printed as size of the decrease) [%] | Apo-B, mean change [3, 7] [mg/dL] | difference to placebo in change of mean HbA1c level (%) ([3]; evaluable population) | FFA, mean change at endpoint [3, 8] [mEq/L] | decrease in mean HbA1c levels (%) from baseline to endpoint ([3]; evaluable population, value printed as size of the decrease) [%] | difference to placebo in change of mean HbA1c level (%) ([3]; patients with FPG≦180 mg/dL) | Mean change (in %) in HbA1c levels to endpoint ([3]; patients with fasting plasma glucose ≦180 mg/dL, LOCF at endpoint, 1200 mg/day oral with sulfonylureas) [%] | Mean change (in %) in HbA1c levels to Week 4 [3, 9] [%] | Mean change (in %) in HbA1c levels to Week 8 [3, 9] [%] | glycemic control [4] | effect on LDL cholesterol (FIG. 3) [5] | rate of mild to moderate hypoglycemia [6]
OC1C(O)C(O)C(O)C(O)C1O [D-chiro-inositol] | significantly increased the disappearance rate of both plasma glucose and insulin | no significant negative scatter; also recorded: slightly increased the insulin AUC | maintained this response after the 13 week course of treatment; also recorded: maintains a constant insulin response over the testing period | 1070.8 | 3.50 | 484.4 | −0.16 | 0.53 | -4.00 | 0.36 | −0.07 | 0.16 | 0.80 | −0.53 | −0.47 | −0.57 | significantly improved glycemic control | significantly reduced the increase of LDL cholesterol | –
CCc1ccc(CCOc2ccc(CC3SC(=O)NC3=O)cc2)nc1 (stereo not shown) [pioglitazone] | – | – | – | – | – | – | – | – | – | – | – | – | – | – | – | – | – | – | 1-2%
